Assay results reported in ChEMBL document CHEMBL1143421, “Population pharmacokinetics at two dose levels and pharmacodynamic profiling of flucloxacillin” (Antimicrob Agents Chemother, 2007).

How the values were obtained:
[1] = Renal clearance in human at a loading dose of 1 g and maintenance dose of 1.2 g/h for 3 hrs; assay type: ADME, organism-based, Kidney; settings: in vivo, iv, read-out: CL_renal (converted)
[2] = Plasma concentration in human at 1000 mg, iv infused for 5 mins; assay type: ADME, organism-based
Homo sapiens [3] = organism: Homo sapiens; experiment: Nonrenal clearance in human at a loading dose of 1 g and maintenance dose of 1.2 g/h for 3 hrs; assay type: ADME, organism-based; settings: in vivo
Homo sapiens [4] = experiment: Nonrenal clearance in human at 500 mg, iv infused for 5 mins; assay type: ADME, organism-based; settings: in vivo
Staphylococcus aureus [5] = experiment: Antibacterial activity against methicillin-susceptible Staphylococcus aureus; assay type: functional
Staphylococcus aureus [6] = experiment: Bactericidal activity against methicillin-susceptible Staphylococcus aureus infected human at MIC of 0.75 mg/l at 6 g, iv administered as continuous infusion for 4 hrs; assay type: functional
[7] = Total body clearance in human at 1000 mg, iv infused for 5 mins; settings: in vivo
[8] = Plasma concentration in human at 500 mg, iv infused for 5 mins; assay type: ADME, organism-based
[9] = Volume of distribution at steady state in human at 1000 mg, iv infused for 5 mins; assay type: ADME, organism-based; settings: in vivo, read-out: Vdss
Homo sapiens [10] = experiment: Metabolic stability in human assessed as urinary excretion of unchanged drug level at 500 mg, iv infused for 5 mins; assay type: ADME, organism-based, Urine; settings: in vivo
Staphylococcus aureus [11] = experiment: Bactericidal activity against methicillin-susceptible Staphylococcus aureus infected human at MIC of 0.25 mg/l at 1.5 g, iv administered every 6 hrs as 0.5 hrs infusion; assay type: functional
clinical = settings: human, in vivo
Description: Total clearance in human at a loading dose of 1 g and maintenance dose of 1.2 g/h for 3 hrs

Staphylococcus aureus [12] = experiment: Bacteriostatic activity against methicillin-susceptible Staphylococcus aureus infected human at MIC of 2 mg/l at 2 g, iv administered every 4 hrs as 0.5 hrs infusion; assay type: functional
[13] = Terminal half life in human at 1000 mg, iv infused for 5 mins; assay type: ADME, organism-based; settings: in vivo, read-out: beta t1/2 (converted)
[14] = Mean residence time in human at 500 mg, iv infused for 5 mins; assay type: ADME, organism-based; settings: in vivo
[15] = Renal clearance in human at 1000 mg, iv infused for 5 mins; assay type: ADME, organism-based, Kidney; settings: in vivo, read-out: CL_renal (converted)
Homo sapiens [16] = experiment: Metabolic stability in human assessed as urinary excretion of unchanged drug level at 1000 mg, iv infused for 5 mins; assay type: ADME, organism-based, Urine; settings: in vivo
[17] = Terminal half life in human at 500 mg, iv infused for 5 mins; assay type: ADME, organism-based; settings: in vivo, read-out: beta t1/2 (converted)
Homo sapiens [18] = experiment: Nonrenal clearance in human at 1000 mg, iv infused for 5 mins; assay type: ADME, organism-based; settings: in vivo
[19] = Protein binding in human plasma; assay type: ADME, cell-free; settings: read-out: PPB (converted)
[20] = Total clearance in human at 1 g, iv infused for 5 mins; settings: in vivo
Staphylococcus aureus [21] = experiment: Bactericidal activity against methicillin-susceptible Staphylococcus aureus infected human at MIC of 1 mg/l at 2 g, iv administered every 4 hrs as 0.5 hrs infusion; assay type: functional
[22] = Renal clearance in human at 500 mg, iv infused for 5 mins; assay type: ADME, organism-based, Kidney; settings: in vivo, read-out: CL_renal (converted)
[23] = Total body clearance in human at 500 mg, iv infused for 5 mins; settings: in vivo
[24] = Volume of distribution at steady state in human at 500 mg, iv infused for 5 mins; assay type: ADME, organism-based; settings: in vivo, read-out: Vdss
Staphylococcus aureus [25] = experiment: Bactericidal activity against methicillin-susceptible Staphylococcus aureus infected human at MIC of 0.75 mg/l at 2 g, iv administered every 8 hrs as 4 hrs infusion; assay type: functional
[26] = Mean residence time in human at 1000 mg, iv infused for 5 mins; assay type: ADME, organism-based; settings: in vivo
Staphylococcus aureus [27] = experiment: Bacteriostatic activity against methicillin-susceptible Staphylococcus aureus infected human at MIC of 0.75 mg/l at 6 g, iv administered as continuous infusion for 4 hrs; assay type: functional
Staphylococcus aureus [28] = experiment: Bacteriostatic activity against methicillin-susceptible Staphylococcus aureus infected human at MIC of 0.75 mg/l at 1.5 g, iv administered every 6 hrs as 0.5 hrs infusion; assay type: functional
Staphylococcus aureus [29] = experiment: Bacteriostatic activity against methicillin-susceptible Staphylococcus aureus infected human at MIC of 1.5 mg/l at 2 g, iv administered every 8 hrs as 4 hrs infusions; assay type: functional

SMILES: Cc1onc(-c2c(F)cccc2Cl)c1C(=O)N[C@@H]1C(=O)N2[C@@H]1SC(C)(C)[C@@H]2C(=O)O [FLOXACILLIN]
- CL renal at 3 h [1]: 88.3 mL/min
- concentration at 5 min [2]: 167 µg/mL
- CL (Homo sapiens [3]): 2.1 L/h
- CL (Homo sapiens [4]): 2.72 L/h
- MIC90 (Staphylococcus aureus [5]): ≤ 0.5 µg/mL
- fT>MIC (Staphylococcus aureus [6]): >=50%
- clearance at 5 min [7]: 136 mL/min
- concentration at 5 min [8]: 86.8 µg/mL
- Vd [9]: 9.97 L
- Activity (Homo sapiens [10]): 0.66
- fT>MIC (Staphylococcus aureus [11]): >=50%
- clearance at 3 h (clinical): 123 mL/min
- fT>MIC (Staphylococcus aureus [12]): >=30%
- half-life [13]: 1.62 h
- MRT [14]: 1.18 h
- CL renal at 5 min [15]: 88.2 mL/min
- Activity (Homo sapiens [16]): 0.65
- half-life [17]: 1.4 h
- CL (Homo sapiens [18]): 2.79 L/h
- fraction unbound [19]: 0.054
- clearance at 5 min [20]: 118 mL/min
- fT>MIC (Staphylococcus aureus [21]): >=50%
- CL renal at 5 min [22]: 89.5 mL/min
- clearance at 5 min [23]: 136 mL/min
- Vd [24]: 9.63 L
- fT>MIC (Staphylococcus aureus [25]): >=50%
- MRT [26]: 1.22 h
- fT>MIC (Staphylococcus aureus [27]): >=30%
- Activity (Staphylococcus aureus [28]): >30%
- fT>MIC (Staphylococcus aureus [29]): >=30%
